Where “and” joins values, the source holds several entries; their conditions need not be identical. Equal values may be shown once.
Legend:
RXR = test: Gal4 hybrid reporter gene assay, RXR (subtype not stated); format: cell-based; settings: for RXR activation: amide analogues; for activity on RXR (fold reporter activation vs. DMSO ctrl): 30 and 100 µM, Figure S1, mean±SD, n=3
Protocol: (§1) modified Eagle’s medium (DMEM), high glucose supplemented with 10% fetal calf serum (FCS), sodium pyruvate (1 mM), penicillin (100 U/mL), and streptomycin (100 μg/mL) at 37 °C and 5% CO2 and seeded in 96-well plates (3×10^4 cells/well). After 24 h, the medium was changed to Opti-MEM without supplements, and the cells were transiently transfected using Lipofectamine LTX reagent (Invitrogen) according to the manufacturer’s protocol. Five hours after transfection, the cells were incubated with the test compounds in Opti-MEM supplemented with penicillin (100 U/mL), streptomycin (100 μg/mL), and 0.1% DMSO for 15 h before luciferase activity was measured using the Dual -Glo Luciferase Assay System (Promega) according to the manufacturer’s protocol on a Tecan Spark l uminometer (Tecan Deutschland GmbH, Germany). Firefly luminescence was divided by Renilla luminescence and multiplied by 1000, resulting in relative light units (RLU) to normalize for transfection efficiency and cell growth. Fold activation was obtained by dividing the mean RLU of a sample by the mean RLU of the untreated control. All samples were tested in at least three biologically independent experiments in duplicates. For dose –response curve fitting and calculation of EC50 values, the equation “[Agonist] vs. response – Variable slope (four parameters)” was used in GraphPad Prism (version 5.04, GraphPad Software, La Jolla, CA, USA). […] (10 μM, NR4A) and bexarotene (1 µM, NR2B) served as the positive control. […]
(§2) 150 μM in the same buffer containing 2-4% DMSO) in 21–26 injections (1 × 1 μL and 20 × 4 to 25 × 4 μL) with an injection interval of 120 s. As control experiments, the test compounds were titrated to the buffer, and the buffer was titrated to the protein under otherwise identical conditions. The heat rates of the compound-Nurr1 LBD titrations were analyzed using NanoAnalyze software (TA Instruments, New Castle, DE) with an independent binding model.

RXRβ = target: T1, RXRβ (Homo sapiens, UniProt P28702); test: Gal4-hybrid reporter gene assay, RXRβ; format: cell-based; settings: for RXRβ activity at single concentration: 30 μM
T1 construct: CMV-hRXRβ-LBD; expressed in transfected cells; host or cells: HEK293T
T1 sequence (P28702 296-529 limits assumed): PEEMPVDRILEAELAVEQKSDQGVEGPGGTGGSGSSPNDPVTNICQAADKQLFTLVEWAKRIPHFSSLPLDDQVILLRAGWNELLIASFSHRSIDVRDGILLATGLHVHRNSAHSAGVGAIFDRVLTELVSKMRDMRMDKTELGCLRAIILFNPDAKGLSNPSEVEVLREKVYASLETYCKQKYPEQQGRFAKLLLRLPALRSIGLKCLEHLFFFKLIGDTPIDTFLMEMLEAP
Protocol: as §1, §2

RXRα = target: T2, RXRα (Homo sapiens, UniProt P19793); test: Gal4-hybrid reporter gene assay, RXRα; format: cell-based; settings: for RXRα activity at single concentration: 30 μM
T2 construct: pFA-CMV-hRXRα-LBD; expressed in transfected cells; host or cells: HEK293T
T2 sequence (P19793 227-458 limits assumed): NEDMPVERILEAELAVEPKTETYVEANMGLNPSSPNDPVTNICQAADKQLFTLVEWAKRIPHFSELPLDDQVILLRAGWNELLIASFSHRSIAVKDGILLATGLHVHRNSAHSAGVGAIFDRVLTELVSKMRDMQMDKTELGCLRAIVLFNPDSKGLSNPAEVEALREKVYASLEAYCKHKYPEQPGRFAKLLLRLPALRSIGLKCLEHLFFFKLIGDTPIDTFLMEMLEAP
Protocol: as §1, §2

Nurr1 LBD = target: T3, Nurr1 LBD (Homo sapiens, UniProt P43354); test: Isothermal titration calorimetry, recombinant Nurr1 LBD; format: binding; settings: ITC
T3 construct: made in house
T3 sequence (P43354 360-595 limits assumed): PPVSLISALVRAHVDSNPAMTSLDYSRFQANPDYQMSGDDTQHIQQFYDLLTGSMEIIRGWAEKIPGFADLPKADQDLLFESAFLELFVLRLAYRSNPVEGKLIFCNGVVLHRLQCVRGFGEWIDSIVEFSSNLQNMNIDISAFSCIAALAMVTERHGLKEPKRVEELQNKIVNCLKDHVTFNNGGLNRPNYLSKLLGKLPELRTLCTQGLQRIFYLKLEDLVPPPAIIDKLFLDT
Protocol: (§3) Isothermal titration calorimetry. ITC experiments for ligand binding to Nurr1 and RXR were conducted on an Affinity ITC instrument (TA Instruments, New Castle, DE) at 25 °C with a stirring rate of 75 rpm using recombinantly expressed ligand binding domain proteins as described previously5,6. The respective LBD protein (12–25 μM) in buffer (20 mM Tris pH 7.5, 100 mM NaCl, 5% glycerol) containing 2-4% DMSO was titrated with the test compounds (100-150 μM in the same buffer containing 2-4% DMSO) in 21–26 injections (1 × 1 μL and 20 × 4 to 25 × 4 μL) with an injection interval of 120 s. As control experiments, the test compounds were titrated to the buffer, and the buffer was titrated to the protein under otherwise identical conditions. The heat rates of the compound-Nurr1 LBD titrations were analyzed using NanoAnalyze software (TA Instruments, New Castle, DE) with an independent binding model.

Nurr1 = target: T4, Nurr1 (Homo sapiens, UniProt P43354); test: Gal4-hybrid reporter gene assay, Nurr1; format: cell-based; settings: for remain. Nurr1 activity: 30 μM; for agonist activity on Gal4-Nurr1: amide analogues; for activity on Nurr1 (fold reporter activation vs. DMSO ctrl): 30 and 100 µM, Figure S1, mean±SD, n=3
T4 construct: pFA-CMV-hNurr1-LBD; expressed in transfected cells; host or cells: HEK293T
T4 sequence (P43354 360-595 limits assumed): as above
Protocol: as §1, §2

RXRα LBD = target: T5, RXRα LBD (Homo sapiens, UniProt P19793); test: Isothermal titration calorimetry, recombinant RXRα LBD; format: binding; settings: ITC
T5 construct: made in house
T5 sequence (P19793 227-458 limits assumed): T2 sequence (P19793 227-458 limits assumed)
Protocol: as §3

RXRγ = target: T6, RXRγ (Homo sapiens, UniProt P48443); test: Gal4-hybrid reporter gene assay, RXRγ; format: cell-based; settings: for RXRγ activity at single concentration: 30 μM
T6 construct: pFA-CMV-hRXRγ-LBD; expressed in transfected cells; host or cells: HEK293T
T6 sequence (P48443 231-459 limits assumed): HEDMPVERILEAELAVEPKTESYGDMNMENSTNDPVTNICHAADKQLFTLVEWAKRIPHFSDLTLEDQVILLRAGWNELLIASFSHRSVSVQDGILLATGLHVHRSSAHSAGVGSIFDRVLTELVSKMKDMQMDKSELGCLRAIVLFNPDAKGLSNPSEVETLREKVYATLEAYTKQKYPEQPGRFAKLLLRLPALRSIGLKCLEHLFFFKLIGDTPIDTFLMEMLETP
Protocol: as §1, §2

Nurr1:RXR heterodimer = Nurr1:RXR heterodimer (Homo sapiens, UniProt P19793+P43354); test: Nurr1 LBD:RXRα LBD heterodimerization assay (HTRF); format: biochemical; settings: 10 µM, Figure S4
Nurr1:RXR heterodimer, sequence (P43354 360-595 limits assumed, one chain of several): as the sequence (P43354 360-595 limits assumed) above
Protocol: (§4) To determine the molecular response of the Nurr1:RXR heterodimer on dual agonist binding, we employed homogenous time-resolved fluorescence resonance energy transfer (HTRF) based assays with labeled Nurr1 and RXR LBD proteins. Tb^3+-cryptate as streptavidin conjugate served as FRET donor and was coupled to biotinylated proteins. sGFP fusion proteins of the receptors of interest were used as FRET acceptors. Ligand effects on dimer formation were determined by titrating the sGFP-labeled dimer partner with a fixed concentration of the Tb^3+-labeled counterpart. […] The same effect was also observable for the natural product 1 (Figure S3).
(§5) Nurr1 dimerization assays (HTRF). Modulation of Nurr1 LBD homodimerization and heterodimerization of the LDBs of Nurr1 and RXRα was investigated by HTRF as reported previously4. Nurr1 LBD or RXRα LBD proteins labeled with sGFP were titrated against a fixed concentration of Tb3+-cryptate as streptavidin conjugate (Tb-SA) (610SATLF, Revvity) coupled to biotinylated Nurr1 LBD protein in the presence of test compounds at 30 µM or absence of compound as a negative control (apo). Assay solutions were prepared in buffer containing 25 mM HEPES pH 7.5, 150 mM KF, 5% (m/v) glycerol, 5 mM DTT, 0.1% (m/v) CHAPS and 1%
(§6) DMSO. The FRET donor complex was formed from biotinylated Nurr1 LBD (final concentration 0.188 nM) and Tb-SA (0.375 nM) and was kept constant. For the homodimerization assay, the FRET acceptor consisted of sGFP-Nurr1 LBD, which was titrated from 0.5 µM, while free sGFP was added to keep the total GFP content stable at 0.5 µM. […] Samples were equilibrated at room temperature for 2 h and fluorescence intensities (FI) after excitation at 340 nm were recorded at 520 nm for sGFP acceptor fluorescence and at 620 for Tb-SA donor fluorescence on a SPARK plate reader (Tecan Group Ltd.). […]
(§7) Evaluation of Nurr1-regulated gene expression. […] RNA concentration and purity were assessed using a NanoDrop One UV-vis spectrophotometer (Thermo Fisher Scientific) at 260/280 nm. […]

Nurr1 homodimer = target: T7, Nurr1 homodimer (Homo sapiens, UniProt P43354); test: Nurr1 LBD homodimerization assay (HTRF); format: biochemical; settings: 30 μM, Tb3+-cryptate and sGFP labeled Nurr1 LBD
T7 construct: Tb^3+-cryptate labeled and sGFP-labeled Nurr1 LBD proteins; FRET acceptor consisted of sGFP-Nurr1 LBD
T7 sequence (P43354 360-595 limits assumed): as the sequence (P43354 360-595 limits assumed) above
Protocol: as §4, §5, §6, §7

[1] = Gal4-hybrid reporter gene assay
[2] = Gal4-hybrid reporter gene assay, mean±S.E.M., n≥3

| Structure (SMILES) | RXR activation (RXR) | RXRβ activity at single concentration (RXRβ) | RXRα activity at single concentration (RXRα) | Kd(Nurr1 LBD) (Nurr1 LBD) | remain. Nurr1 activity (Nurr1; [1]) | agonist activity on Gal4-Nurr1 (Nurr1) | Kd(RXRα LBD) (RXRα LBD) | RXRγ activity at single concentration (RXRγ) | activity on RXR (fold reporter activation vs. DMSO ctrl) (RXR) | activity on Nurr1 (fold reporter activation vs. DMSO ctrl) (Nurr1) | further results |
| --- | --- | --- | --- | --- | --- | --- | --- | --- | --- | --- | --- |
| Cc1c2c(n(-c3ccc(CC(N)=O)cc3)c1C)CCC(F)(F)C2 [compound 4] | failed to activate RXR | α: inactive (30 μM) β: inactive (30 μM) γ: inactive (30 μM) | α: inactive (30 μM) β: inactive (30 μM) γ: inactive (30 μM) | no binding detected | 86±9% remain. Nurr1 activity (30 μM) | lost agonist activity | no binding detected | α: inactive (30 μM) β: inactive (30 μM) γ: inactive (30 μM) | – | – | – |
| CC1(C)CCC(C)(C)c2cc(C3(c4ccc(C(=O)O)cc4)OCCO3)ccc21 [SR11237, reference compound] | – | – | – | – | – | – | – | – | – | – | Nurr1:RXR heterodimer formation (dimer strength) (Nurr1:RXR heterodimer): Diminished dimer strength |
| CC(=O)O[C@@H]1CC(C)=C2[C@H]1[C@H](C)CC[C@H]2/C=C(\C)C(=O)O [VA-OAc, acetoxy-valerenic acid, reference compound] | – | – | – | – | – | – | – | – | no activity | no activity | – |
| CC1=C2[C@H](/C=C(\C)C(=O)O)CC[C@@H](C)[C@H]2CC1 [compound 1, valerenic acid] | – | – | – | – | – | – | – | – | – | – | max. act. (RXR) β (RXRβ; [1]): 69±1 fold; EC50 (RXRβ; [2]): 5.2 µM; max. act. (RXR) α (RXRα; [1]): 9±1 fold; EC50 (RXRα; [2]): 27 µM; max. act. (Nurr1) (Nurr1; Gal4-hybrid reporter gene assay, max. fold activation): 1.3 fold and 1.3±0.1 fold; EC50 (Nurr1; [2]): 3 ± 1 µM; Nurr1 homodimer formation (Nurr1 homodimer): same effect; max. act. (RXR) γ (RXRγ; [1]): 4±1 fold; EC50 (RXRγ; [2]): 43 µM |
| CC1=C2[C@@H]([C@H](C)CC[C@H]2/C=C(\C)C(=O)O)[C@H](O)C1 [VA-OH, hydroxy-valerenic acid, reference compound] | – | – | – | – | – | – | – | – | no activity | no activity | – |
| Cc1c(C)n(-c2ccc(CC(N)=O)cc2)c2ccc(F)cc12 [compound 5] | failed to activate RXR | α: inactive (30 μM) β: inactive (30 μM) γ: inactive (30 μM) | α: inactive (30 μM) β: inactive (30 μM) γ: inactive (30 μM) | no binding detected | 85±7% remain. Nurr1 activity (30 μM) | lost agonist activity | no binding detected | α: inactive (30 μM) β: inactive (30 μM) γ: inactive (30 μM) | – | – | – |
